# Results: paper PMC4424350, “Unraveling the Specific Regulation of the Central Pathway for Anaerobic Degradation of 3-Methylbenzoate” (The Journal of Biological Chemistry, 2015)
# Biological target: T1, MbdR (MbdR-His6) (Azoarcus sp., UniProt Z9KMW0QJC7)
# T1 construct: full-length, C-terminal His6 (pETmbdR), expressed in E. coli BL21(DE3), Ni-NTA; dimer in solution
# Test: gel retardation (release of promoter DNA); DNase I footprinting; in vitro transcription
# Format: binding
# Conditions: inducer; 30 nM MbdR-His6 with PO or PB1 DNA probe, 20 mM Tris-HCl pH 7.5, 50 mM KCl, 30 °C
smiles,measurement,value
Cc1cccc(C(=O)SCCNC(=O)CCNC(=O)[C@H](O)C(C)(C)COP(=O)(O)OP(=O)(O)OC[C@H]2O[C@@H](n3cnc4c(N)ncnc43)[C@H](O)[C@@H]2OP(=O)(O)O)c1 [3-methylbenzoyl-CoA],gel retardation (release of promoter DNA); DNase I footprinting; in vitro transc,3-methylbenzoyl-CoA inhibited the interaction of MbdR with the PO and PB1 probes
